From ChEMBL document CHEMBL4507274 (2021)

Experiments:
[1] = target: Alpha-1D adrenergic receptor (Homo sapiens) (UniProt P25100); settings: Compound concentration 10.0 uM
[2] = target: Muscarinic acetylcholine receptor M4 (Homo sapiens) (UniProt P08173); settings: Compound concentration 10.0 uM
[3] = target: Macrophage colony-stimulating factor 1 receptor (Homo sapiens) (UniProt P07333); assay: Fms (h) Upstate kinase activity assay; settings: Compound concentration 10.0 uM
[4] = target: Tyrosine-protein kinase Lyn (Mus musculus) (UniProt P25911); assay: Lyn (m) Upstate kinase activity assay; settings: Compound concentration 10.0 uM
Chain of Tyrosine-protein kinase Lyn (Mus musculus) (P25911 whole entry): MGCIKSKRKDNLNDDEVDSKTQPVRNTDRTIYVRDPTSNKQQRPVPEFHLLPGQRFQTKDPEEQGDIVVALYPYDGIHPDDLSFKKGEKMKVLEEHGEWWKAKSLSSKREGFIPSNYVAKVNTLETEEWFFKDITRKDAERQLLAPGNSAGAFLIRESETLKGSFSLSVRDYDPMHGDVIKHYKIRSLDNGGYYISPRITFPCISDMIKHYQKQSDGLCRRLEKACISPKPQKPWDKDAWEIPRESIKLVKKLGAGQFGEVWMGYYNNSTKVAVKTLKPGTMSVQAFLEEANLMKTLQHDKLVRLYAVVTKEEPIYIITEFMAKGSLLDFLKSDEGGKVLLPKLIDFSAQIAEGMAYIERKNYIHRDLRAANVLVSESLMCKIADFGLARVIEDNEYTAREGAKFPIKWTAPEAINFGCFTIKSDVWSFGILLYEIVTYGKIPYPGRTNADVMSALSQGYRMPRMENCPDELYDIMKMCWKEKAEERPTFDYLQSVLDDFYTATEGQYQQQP

MCF7 = assay: Breast MCF-7 cell line MDS Pharma Services Proliferation Assay; assay type: functional, cell-based, Homo sapiens
[5] = target: Mitogen-activated protein kinase 14 (Homo sapiens) (UniProt Q16539); assay: SAPK2a (h) Upstate kinase activity assay; settings: Compound concentration 10.0 uM
Chain of Mitogen-activated protein kinase 14 (Homo sapiens) (Q16539 whole entry): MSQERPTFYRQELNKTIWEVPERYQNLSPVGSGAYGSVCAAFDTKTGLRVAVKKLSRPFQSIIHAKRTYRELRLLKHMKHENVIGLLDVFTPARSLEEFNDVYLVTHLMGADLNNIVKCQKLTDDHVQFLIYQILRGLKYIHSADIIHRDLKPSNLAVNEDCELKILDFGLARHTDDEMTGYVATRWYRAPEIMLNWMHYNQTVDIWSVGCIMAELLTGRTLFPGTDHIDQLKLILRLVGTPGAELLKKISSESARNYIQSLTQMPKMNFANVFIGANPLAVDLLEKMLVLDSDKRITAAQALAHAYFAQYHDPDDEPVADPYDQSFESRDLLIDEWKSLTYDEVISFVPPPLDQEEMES

[6] = target: T1, Tyrosine-protein kinase receptor TYRO3 (Homo sapiens) (UniProt Q06418); assay: Rse (h) Upstate kinase activity assay; settings: Compound concentration 10.0 uM
T1 sequence (whole entry): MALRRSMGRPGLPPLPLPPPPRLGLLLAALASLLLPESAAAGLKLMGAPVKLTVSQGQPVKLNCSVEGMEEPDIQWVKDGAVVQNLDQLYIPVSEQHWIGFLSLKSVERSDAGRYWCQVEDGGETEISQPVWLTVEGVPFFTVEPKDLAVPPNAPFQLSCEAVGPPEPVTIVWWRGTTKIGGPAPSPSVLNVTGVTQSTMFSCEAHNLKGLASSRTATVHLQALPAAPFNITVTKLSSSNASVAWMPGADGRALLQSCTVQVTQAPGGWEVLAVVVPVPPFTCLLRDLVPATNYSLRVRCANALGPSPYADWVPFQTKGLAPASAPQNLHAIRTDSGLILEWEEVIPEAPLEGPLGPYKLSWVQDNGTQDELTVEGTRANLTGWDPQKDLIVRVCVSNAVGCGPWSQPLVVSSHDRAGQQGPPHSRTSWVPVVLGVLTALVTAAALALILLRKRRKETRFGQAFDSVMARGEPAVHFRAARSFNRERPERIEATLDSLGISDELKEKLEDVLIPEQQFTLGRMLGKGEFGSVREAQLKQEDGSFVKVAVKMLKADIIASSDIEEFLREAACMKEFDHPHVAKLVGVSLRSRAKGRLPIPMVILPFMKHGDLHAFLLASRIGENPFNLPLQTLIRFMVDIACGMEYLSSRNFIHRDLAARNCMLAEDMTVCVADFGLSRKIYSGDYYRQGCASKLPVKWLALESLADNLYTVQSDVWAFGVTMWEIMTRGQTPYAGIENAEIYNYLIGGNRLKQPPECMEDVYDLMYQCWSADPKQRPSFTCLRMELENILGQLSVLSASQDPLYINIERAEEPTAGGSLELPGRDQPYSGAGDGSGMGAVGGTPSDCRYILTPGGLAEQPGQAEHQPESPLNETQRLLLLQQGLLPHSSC

[7] = target: Serine/threonine-protein kinase N2 (Homo sapiens) (UniProt Q16513); assay: PRK2 (h) Upstate kinase activity assay; settings: Compound concentration 10.0 uM
Chain of Serine/threonine-protein kinase N2 (Homo sapiens) (Q16513 whole entry, looked up): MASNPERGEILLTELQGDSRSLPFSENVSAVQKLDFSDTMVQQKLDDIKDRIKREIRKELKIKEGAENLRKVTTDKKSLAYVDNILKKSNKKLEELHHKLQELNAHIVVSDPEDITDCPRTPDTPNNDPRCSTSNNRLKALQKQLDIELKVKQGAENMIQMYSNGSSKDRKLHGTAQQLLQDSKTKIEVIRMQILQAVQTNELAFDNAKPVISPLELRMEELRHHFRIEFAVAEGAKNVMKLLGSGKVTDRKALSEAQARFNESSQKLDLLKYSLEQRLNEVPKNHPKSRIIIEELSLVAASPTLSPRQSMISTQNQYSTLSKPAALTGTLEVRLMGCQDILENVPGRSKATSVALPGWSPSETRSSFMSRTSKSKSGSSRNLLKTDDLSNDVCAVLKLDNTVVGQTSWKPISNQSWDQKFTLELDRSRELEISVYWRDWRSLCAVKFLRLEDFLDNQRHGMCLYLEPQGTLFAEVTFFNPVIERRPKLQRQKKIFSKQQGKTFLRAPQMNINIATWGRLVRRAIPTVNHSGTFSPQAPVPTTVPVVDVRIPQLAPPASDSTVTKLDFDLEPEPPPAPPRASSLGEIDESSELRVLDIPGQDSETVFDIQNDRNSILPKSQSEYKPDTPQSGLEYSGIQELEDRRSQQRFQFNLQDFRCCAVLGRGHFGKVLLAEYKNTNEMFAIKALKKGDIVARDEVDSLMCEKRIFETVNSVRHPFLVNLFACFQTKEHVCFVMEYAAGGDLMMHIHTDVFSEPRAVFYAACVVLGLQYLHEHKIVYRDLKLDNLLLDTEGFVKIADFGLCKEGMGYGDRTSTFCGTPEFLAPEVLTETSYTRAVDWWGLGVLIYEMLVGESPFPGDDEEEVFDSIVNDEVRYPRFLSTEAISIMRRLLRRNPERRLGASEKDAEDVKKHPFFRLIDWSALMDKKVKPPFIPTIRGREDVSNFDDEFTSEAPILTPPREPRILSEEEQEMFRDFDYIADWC

[8] = target: Receptor tyrosine-protein kinase erbB-4 (Homo sapiens) (UniProt Q15303); assay: ErbB4 (h) Upstate kinase activity assay; settings: Compound concentration 10.0 uM
[9] = target: Tyrosine-protein kinase ABL2 (Homo sapiens) (UniProt P42684); assay: Arg (h) Upstate kinase activity assay; settings: Compound concentration 10.0 uM
[10] = target: Insulin receptor (Homo sapiens) (UniProt P06213); assay: IR (h) Upstate kinase activity assay; settings: Compound concentration 10.0 uM
HepG2 = assay: Liver HepG2 cell line MDS Pharma Services Proliferation Assay; assay type: functional, cell-based, Homo sapiens
[11] = target: Protein kinase C beta type (Homo sapiens) (UniProt P05771); assay: PKCBI (h) Upstate kinase activity assay; settings: Compound concentration 10.0 uM
[12] = target: cAMP-dependent protein kinase catalytic subunit alpha (Homo sapiens) (UniProt P17612); assay: PKA (h) Upstate kinase activity assay; settings: Compound concentration 10.0 uM
[13] = target: Receptor-type tyrosine-protein kinase FLT3 (Homo sapiens) (UniProt P36888); settings: Compound concentration 10.0 uM
[14] = target: T2, Serine/threonine-protein kinase D2 (Homo sapiens) (UniProt Q9BZL6); assay: PKD2 (h) Upstate kinase activity assay; settings: Compound concentration 10.0 uM
T2 sequence (whole entry): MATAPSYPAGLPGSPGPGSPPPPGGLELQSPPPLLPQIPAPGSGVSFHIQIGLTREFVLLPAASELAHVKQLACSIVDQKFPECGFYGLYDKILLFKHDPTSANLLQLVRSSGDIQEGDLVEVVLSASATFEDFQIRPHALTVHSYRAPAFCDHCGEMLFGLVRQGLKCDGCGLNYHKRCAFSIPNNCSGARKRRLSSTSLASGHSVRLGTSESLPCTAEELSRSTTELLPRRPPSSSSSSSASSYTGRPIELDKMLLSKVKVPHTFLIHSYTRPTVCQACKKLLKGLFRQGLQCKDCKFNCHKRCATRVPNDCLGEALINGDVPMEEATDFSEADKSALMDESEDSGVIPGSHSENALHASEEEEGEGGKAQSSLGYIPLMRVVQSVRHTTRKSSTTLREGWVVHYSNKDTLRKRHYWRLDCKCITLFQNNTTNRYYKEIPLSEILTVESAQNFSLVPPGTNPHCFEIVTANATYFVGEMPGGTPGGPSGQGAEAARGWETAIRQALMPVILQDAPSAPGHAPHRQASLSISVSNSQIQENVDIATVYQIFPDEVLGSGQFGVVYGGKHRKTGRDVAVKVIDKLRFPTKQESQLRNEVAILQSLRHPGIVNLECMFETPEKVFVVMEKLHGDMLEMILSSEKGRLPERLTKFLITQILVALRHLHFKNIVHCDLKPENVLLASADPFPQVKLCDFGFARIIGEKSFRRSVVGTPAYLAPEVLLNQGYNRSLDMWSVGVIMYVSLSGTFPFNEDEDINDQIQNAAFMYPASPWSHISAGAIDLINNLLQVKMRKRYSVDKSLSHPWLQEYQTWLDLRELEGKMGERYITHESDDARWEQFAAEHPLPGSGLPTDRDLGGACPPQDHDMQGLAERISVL

[15] = target: Tyrosine-protein kinase ABL1 (Homo sapiens) (UniProt P00519); assay: Abl (h) Upstate kinase activity assay; settings: Compound concentration 10.0 uM
Chain of Tyrosine-protein kinase ABL1 (Homo sapiens) (P00519 whole entry): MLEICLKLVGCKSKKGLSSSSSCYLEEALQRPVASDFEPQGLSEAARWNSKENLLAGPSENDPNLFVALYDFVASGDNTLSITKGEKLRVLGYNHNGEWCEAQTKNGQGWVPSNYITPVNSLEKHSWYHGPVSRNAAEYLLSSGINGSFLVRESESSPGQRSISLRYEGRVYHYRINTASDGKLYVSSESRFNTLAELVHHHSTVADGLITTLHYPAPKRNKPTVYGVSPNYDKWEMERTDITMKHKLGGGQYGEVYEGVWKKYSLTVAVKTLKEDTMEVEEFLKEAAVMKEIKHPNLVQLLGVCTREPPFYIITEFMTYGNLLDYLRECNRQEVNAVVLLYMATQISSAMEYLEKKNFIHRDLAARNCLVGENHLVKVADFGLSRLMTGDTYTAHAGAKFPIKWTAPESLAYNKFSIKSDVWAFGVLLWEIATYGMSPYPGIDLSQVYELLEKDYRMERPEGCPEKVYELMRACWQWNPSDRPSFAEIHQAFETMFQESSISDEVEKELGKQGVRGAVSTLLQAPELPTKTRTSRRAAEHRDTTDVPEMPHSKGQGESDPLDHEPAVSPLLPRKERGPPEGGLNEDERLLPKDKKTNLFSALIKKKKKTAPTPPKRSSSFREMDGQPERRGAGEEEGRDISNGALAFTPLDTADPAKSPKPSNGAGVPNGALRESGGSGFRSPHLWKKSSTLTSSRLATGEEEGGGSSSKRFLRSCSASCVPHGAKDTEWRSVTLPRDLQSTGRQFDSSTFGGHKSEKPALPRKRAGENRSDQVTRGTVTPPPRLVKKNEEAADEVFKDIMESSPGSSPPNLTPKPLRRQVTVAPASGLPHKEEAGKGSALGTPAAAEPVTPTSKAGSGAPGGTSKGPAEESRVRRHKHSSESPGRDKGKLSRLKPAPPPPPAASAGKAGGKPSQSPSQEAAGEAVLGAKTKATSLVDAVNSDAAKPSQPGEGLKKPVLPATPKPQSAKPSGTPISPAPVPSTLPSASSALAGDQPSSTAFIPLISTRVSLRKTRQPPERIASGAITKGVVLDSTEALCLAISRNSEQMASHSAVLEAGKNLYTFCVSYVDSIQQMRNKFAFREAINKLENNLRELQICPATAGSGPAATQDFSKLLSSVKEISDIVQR

[16] = system: KATO III stomach cancer cell line; assay: Stomach KATO III cell line MDS Pharma Services Proliferation Assay; assay type: functional, cell-based, Homo sapiens

Chain of Macrophage colony-stimulating factor 1 receptor (Homo sapiens) (P07333 whole entry): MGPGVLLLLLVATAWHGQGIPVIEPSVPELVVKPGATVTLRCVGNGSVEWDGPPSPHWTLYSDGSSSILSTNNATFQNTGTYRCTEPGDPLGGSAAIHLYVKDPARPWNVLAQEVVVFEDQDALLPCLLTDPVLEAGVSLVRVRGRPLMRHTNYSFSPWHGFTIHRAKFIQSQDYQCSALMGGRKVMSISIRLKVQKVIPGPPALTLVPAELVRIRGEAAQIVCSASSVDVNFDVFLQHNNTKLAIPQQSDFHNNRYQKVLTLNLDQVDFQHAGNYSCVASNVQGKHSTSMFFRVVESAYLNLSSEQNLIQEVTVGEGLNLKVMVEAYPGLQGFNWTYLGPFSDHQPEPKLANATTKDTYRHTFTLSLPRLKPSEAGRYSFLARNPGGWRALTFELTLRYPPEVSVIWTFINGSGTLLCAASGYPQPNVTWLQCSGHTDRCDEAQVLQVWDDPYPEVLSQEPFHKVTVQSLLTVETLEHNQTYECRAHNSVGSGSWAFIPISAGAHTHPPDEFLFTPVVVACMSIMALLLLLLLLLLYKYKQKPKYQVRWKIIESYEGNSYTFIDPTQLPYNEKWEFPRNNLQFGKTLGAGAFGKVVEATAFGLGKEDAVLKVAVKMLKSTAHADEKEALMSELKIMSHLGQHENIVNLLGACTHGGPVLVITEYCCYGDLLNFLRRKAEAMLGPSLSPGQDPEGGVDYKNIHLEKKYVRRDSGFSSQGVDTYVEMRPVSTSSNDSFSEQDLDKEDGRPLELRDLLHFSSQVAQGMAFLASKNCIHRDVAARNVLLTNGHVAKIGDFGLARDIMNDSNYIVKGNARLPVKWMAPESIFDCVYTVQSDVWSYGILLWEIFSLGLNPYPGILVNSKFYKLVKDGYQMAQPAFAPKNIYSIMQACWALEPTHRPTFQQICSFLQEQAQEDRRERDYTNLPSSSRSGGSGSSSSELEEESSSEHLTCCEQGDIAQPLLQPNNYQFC
Chain of Alpha-1D adrenergic receptor (Homo sapiens) (P25100 whole entry): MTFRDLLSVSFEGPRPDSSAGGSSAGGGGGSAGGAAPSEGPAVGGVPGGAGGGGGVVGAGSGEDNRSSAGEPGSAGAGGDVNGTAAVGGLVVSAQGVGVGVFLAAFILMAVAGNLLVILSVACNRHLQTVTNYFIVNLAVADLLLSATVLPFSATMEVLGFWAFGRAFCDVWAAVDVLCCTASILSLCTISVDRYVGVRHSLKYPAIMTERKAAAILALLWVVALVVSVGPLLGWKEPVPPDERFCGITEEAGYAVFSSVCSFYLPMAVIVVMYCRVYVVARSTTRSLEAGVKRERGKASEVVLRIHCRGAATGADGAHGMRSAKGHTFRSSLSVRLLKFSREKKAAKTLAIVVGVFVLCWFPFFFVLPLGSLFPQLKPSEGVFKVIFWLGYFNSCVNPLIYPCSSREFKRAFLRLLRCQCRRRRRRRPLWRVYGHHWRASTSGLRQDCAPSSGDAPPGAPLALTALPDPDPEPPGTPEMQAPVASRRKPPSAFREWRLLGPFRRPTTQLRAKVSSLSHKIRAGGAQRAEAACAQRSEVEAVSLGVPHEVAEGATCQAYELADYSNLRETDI
Chain of Muscarinic acetylcholine receptor M4 (Homo sapiens) (P08173 whole entry): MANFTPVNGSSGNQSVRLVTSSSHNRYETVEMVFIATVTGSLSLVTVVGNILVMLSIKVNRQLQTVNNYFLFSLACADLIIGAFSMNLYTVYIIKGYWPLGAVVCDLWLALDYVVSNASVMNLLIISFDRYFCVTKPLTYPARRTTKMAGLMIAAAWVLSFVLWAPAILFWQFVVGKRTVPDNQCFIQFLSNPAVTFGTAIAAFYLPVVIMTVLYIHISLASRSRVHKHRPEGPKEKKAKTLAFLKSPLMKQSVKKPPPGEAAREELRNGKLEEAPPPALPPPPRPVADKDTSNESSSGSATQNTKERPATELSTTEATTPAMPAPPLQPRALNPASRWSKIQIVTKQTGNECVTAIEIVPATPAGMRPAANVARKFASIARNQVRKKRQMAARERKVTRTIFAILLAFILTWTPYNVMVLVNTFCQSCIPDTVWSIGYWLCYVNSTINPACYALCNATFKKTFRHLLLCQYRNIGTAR

For `Cn1cc(Cl)c2c(Oc3c(F)cc(Nc4cc(Cl)nc(N)n4)cc3F)ccnc21` [BAY-4900], the inhibition [1] was -6.73% and the inhibition [2] was -3.76%.
`Cc1c[nH]c2nccc(Oc3c(F)cc(Nc4cc(Cl)nc(N)n4)cc3F)c12` [BAY-549] was tested, and the inhibition [3] was 64%, the inhibition [4] was 4% and the TGI (MCF7; Homo sapiens, MCF7) was over 100 µM. For the same compound, the CC50 (MCF7; Homo sapiens, MCF7, read-out: LC50 (the source's name)) was over 100 µM, the “Mean % growth (n = 2) for 1.0 µM probe concentration” value (MCF7; ± SEM 1 % growth) was 87% and the “Mean % growth (n = 2) for 10.0 µM probe concentration” value (MCF7; ± SEM 2 % growth) was 57%. The “Mean % growth (n = 2) for 0.01 µM probe concentration” value (MCF7; ± SEM 3 % growth) was 92%, the “Mean % growth (n = 2) for 100.0 µM probe concentration” value (MCF7; ± SEM 4 % growth) was 6% and the “Mean % growth (n = 2) for 0.1 µM probe concentration” value (MCF7; ± SEM 9 % growth) was 89%. It also gave an inhibition [5] of 21%, an inhibition [6] of 15% and an inhibition [7] of 70%. It also gave an inhibition [8] of 5%, an inhibition [9] of 37% and an inhibition [10] of 59%. For the same compound, the IC50 (HepG2; Homo sapiens, HepG2) was 3.1 µM, the TGI (HepG2; Homo sapiens, HepG2) was 54 µM and the CC50 (HepG2; Homo sapiens, HepG2, read-out: LC50 (the source's name)) was over 100 µM. The “Mean % growth (n = 2) for 1.0 µM probe concentration” value (HepG2; ± SEM 2 % growth) was 62%, the “Mean % growth (n = 2) for 0.01 µM probe concentration” value (HepG2; ± SEM 4 % growth) was 101% and the “Mean % growth (n = 2) for 10.0 µM probe concentration” value (HepG2; ± SEM 4 % growth) was 18%. The “Mean % growth (n = 2) for 0.1 µM probe concentration” value (HepG2; ± SEM 6 % growth) was 95%, the “Mean % growth (n = 2) for 100.0 µM probe concentration” value (HepG2; ± SEM 6 % growth) was -3% and the inhibition [11] was 8%. The inhibition [12] was 95%, the inhibition [13] was 98% and the inhibition [14] was 28%. For the same compound, the inhibition [15] was 14%, the IC50 ([16]; Homo sapiens, KATO III) was 3.2 µM and the TGI ([16]; Homo sapiens, KATO III) was over 100 µM. For the same compound, the CC50 ([16]; Homo sapiens, KATO III, read-out: LC50 (the source's name)) was over 100 µM, the “Mean % growth (n = 2) for 0.01 µM probe concentration” value ([16]; ± SEM 7 % growth) was 98% and the “Mean % growth (n = 2) for 10.0 µM probe concentration” value ([16]; ± SEM 7 % growth) was 27%. For the same compound, the “Mean % growth (n = 2) for 100.0 µM probe concentration” value ([16]; ± SEM 7 % growth) was 19%, the “Mean % growth (n = 2) for 1.0 µM probe concentration” value ([16]; ± SEM 8 % growth) was 66% and the “Mean % growth (n = 2) for 0.1 µM probe concentration” value ([16]; ± SEM 11 % growth) was 99%.
